In ChEMBL document CHEMBL3507680, “University of Dundee, Gates Library screen for HepG2 cell viability” one finds cytotoxicity data, which are given here for 99 compounds.

This data set can be described thus: Human HepG2 cell viability assay in 384 well format. Type of data set: toxicity, cell-based. Set-up: dose 125 nL, time 70.5 hour; concentration not given beside the values. The settings on record: HepG2 cells, read-out: Inhibition.
Consider `O=C(Cc1n[nH]c2ccccc12)N1CCCCC1Cn1cccn1` (centres undefined), for which the cytotoxicity at 70.5 h worked out at 2.97%.

In the case of `c1cnc(N2CCO[C@H]3CN(CC4CCOCC4)C[C@H]32)nc1`, the cytotoxicity at 70.5 h is -3.7%. The figure for `Cc1nnc(CN(C)Cc2ccc(C(=O)Nc3sccc3C#N)cc2)o1` is 0.967%. In the case of `c1coc(CN2CCCn3c(nnc3Cn3cccn3)C2)c1`, the cytotoxicity at 70.5 h came to 3.11%. Next, `COc1ccccc1C1(O)CCCN(C(=O)c2ccnn2C(C)C)C1` (centres undefined): -1.5%; `O=C(NCc1cccc(F)c1)c1cccc(C(=O)N2CCCC2)n1`: 3.72%. The figure for `Fc1cccc(O[C@@H]2C[C@H]3CN(Cc4ccccn4)CCN3C2)c1` is 27.5%. The figure for `Cc1cc(S(=O)(=O)NC(=O)CCc2cncc(F)c2)c(C)s1` is -1.54%; for `Cc1ccc(C(=O)N2C[C@H]3CCCC(OCc4cccnc4)[C@H]3C2)cn1` (some centres undefined) it is -1.36%; for `CCOc1cc(/C=C/c2ncc(C(=O)O)s2)cc(Br)c1OC` it is -10.4%. Consider `Cc1nc(NC(=O)C(C)n2ncc(Br)c2C)sc1C` (centres undefined), for which the cytotoxicity at 70.5 h stood at 1.11%. Consider `CCCC(Nc1c(C#N)c(=O)n(C)c(=O)n1C)c1ccc(F)cc1F` (centres undefined), for which the cytotoxicity at 70.5 h is 9.48%. Next, `CCN(CC)CCNC(=O)c1cnc(C(C)(C)C)s1`: -6.77%; `CN(Cc1n[nH]c(=O)n1CCc1ccccc1F)S(C)(=O)=O`: -1.83%. As for `Cc1cccc(C(=O)N2CCC(c3n[nH]c(C4CC4)n3)CC2)c1`, the cytotoxicity at 70.5 h worked out at 20.7%.

With `Nc1cc(N2CCCC(COc3ccc(F)cc3)C2)nc(N)n1` (centres undefined), the cytotoxicity at 70.5 h is -2.71%. `Cc1ccc2c(c1)c(C)cc(=O)n2CCC#N`: the cytotoxicity at 70.5 h amounted to 0.982%.

On to `COc1ncccc1NC(=O)C1CCS(=O)(=O)C1` (centres undefined), for which the cytotoxicity at 70.5 h was -15.1%.

For `CCOc1ccccc1NC(=O)NCC(C)(O)CCSC` (centres undefined), the cytotoxicity at 70.5 h was -3.88%.

For `Cc1nccn1-c1ccc(CN2CC3C[C@@H](O)CN3C[C@@H]2C)cc1` (some centres undefined), the cytotoxicity at 70.5 h was -7.07%.

`O=C(Cc1ccc2c(c1)OCCO2)NC1CC1`: the cytotoxicity at 70.5 h worked out at 0.821%.

Consider `COc1coc(C(=O)Nc2nc(-c3cccnc3)cs2)cc1=O`, for which the cytotoxicity at 70.5 h was -13.5%.

With `O=C(NCCOc1ccc2c(c1)OCO2)C1CC(=O)N(C2CC2)C1` (centres undefined), the cytotoxicity at 70.5 h was determined as 3.82%. Next, `O=C(CCC1CCCC1)N1CCC(c2ncc3c(n2)CCNC3)CC1`: 11.5%; `CSCC[C@@H](CO)Nc1ccc(-c2nc(C3CC3)no2)cn1`: -3.18%; `COc1cccc(CN(C)C(=O)CN2CCN(c3nccn3C)CC2)c1`: -6.12%. With `Cn1c(=O)c2c(n3ncnc13)NC(=O)CC2c1cccc(F)c1` (centres undefined), the cytotoxicity at 70.5 h was -11.8%.

For the compound `COc1ccc(OC)c(C2CC(=O)Nc3nc(N4CCOCC4)sc32)c1` (centres undefined), the cytotoxicity at 70.5 h worked out at 4.11%. Take `NC(=O)CN1CCC(NC(=O)Nc2nccs2)CC1`: the cytotoxicity at 70.5 h is 21.5%. `CS(=O)(=O)CCCSc1cccc(C#N)c1`: the cytotoxicity at 70.5 h is -13%. Next, `CC(C)(NS(C)(=O)=O)c1nc(-c2ccncc2)no1`: 18.6%; `CN(C)c1ncccc1CNC(=O)CCNc1ncccn1`: -9.01%. The figure for `O=C(c1cc2c(s1)CCC2)N1CCC(c2ccncc2)CC1` is 15.8%; for `Cn1c(Cn2ccnc2)nnc1C1CCN(C(=O)c2cccnc2)CC1` it is -10.4%; for `O=C(CCc1cc2n(n1)CCCNC2)NCCCSC1CCCCC1` it is -8.87%. The figure for `CC(C)n1cc(CN2CCCN(C(=O)C(C)n3cncn3)CC2)cn1` (centres undefined) is 3.68%; for `COC(=O)NCC(=O)N1CCC(c2cc3ccccc3[nH]2)CC1` it is -8.79%; for `COCC(=O)N1C[C@H]2CCC[C@@]2(COC)C1` it is -5.02%. In the case of `CC(NC(=O)CSCC(N)=O)c1ccccc1Oc1ccccc1` (centres undefined), the cytotoxicity at 70.5 h was found to be 16.5%. As to `COc1c(F)cc(NC(=O)N2CCC(CSC)C2)cc1F` (centres undefined), the cytotoxicity at 70.5 h was found to be 16.5%.

As for `CC(C)NC(=O)c1n[nH]c(-n2cnnc2)n1`, the cytotoxicity at 70.5 h was -0.175%. In the case of `COCCN1C(=O)C2(CCC(C(=O)Nc3ccc(F)cc3)CC2)N=C1C` (centres undefined), the cytotoxicity at 70.5 h was -7.58%. Next, `CC(=O)N1CC[C@H](c2nnc(Cc3c[nH]c4ccccc34)o2)C1`: -3.38%.

Consider `COCCCN1CCC(C(=O)c2cc(F)ccc2F)CC1`, for which the cytotoxicity at 70.5 h was -0.37%. The figure for `CNC(=O)C1Cn2ccnc2C2(CCN(Cc3cccnc3)CC2)O1` (centres undefined) is 2.48%; for `CO[C@H]1CN(C(=O)c2ccccn2)[C@@H]2CCCO[C@H]12` it is -14.9%. The figure for `CN(C)CCO[C@H]1CN(C(=O)c2cscn2)[C@@H]2COC[C@H]12` is -14.3%; for `CC(NCC1CCS(=O)(=O)CC1)c1cccc(OC(F)F)c1` (centres undefined) it is -6.96%; for `O=C(CCC(=O)N1CCNC(=O)C1c1cccc(F)c1)NC1CCCC1` (centres undefined) it is -6.2%.

`CC(=O)N1CCN(CC(=O)N2CCN(c3cccc(C)c3)CC2)CC1`: the cytotoxicity at 70.5 h is 24.4%.

Take `O=C(c1cnccn1)N1CCC(Cc2cnc3[nH]ccc3c2)CC1`: the cytotoxicity at 70.5 h is -2.92%.

With `CS(=O)(=O)c1cccc(S(=O)(=O)NC(=O)CC2CCCC2)c1`, the cytotoxicity at 70.5 h is -3.3%. In the case of `Cn1cnc2c1CCN(c1ccnc(-c3ccccc3)n1)C2`, the cytotoxicity at 70.5 h was -18.3%.

Consider `COc1ccc(CN2CCO[C@H]3CN(C4CCC4)CC[C@H]3C2=O)cc1`, for which the cytotoxicity at 70.5 h is -0.486%. Next, `CSCC(=O)N1CCCC(CCC(=O)N(C)CCc2ccccn2)C1` (centres undefined): 9.62%.

As for `CCS(=O)(=O)N1CCc2ccc(NC(=O)Nc3cccc(F)c3)cc21`, the cytotoxicity at 70.5 h came to 33%. The figure for `Cc1csc(C(=O)N2CCC(O)(CN3CCc4ccccc4C3)C2)c1` (centres undefined) is -3.4%. The figure for `Fc1ccc(-c2ccc(CNC3CCc4ncnn4C3)o2)cc1` (centres undefined) is -9.49%; for `O=C(c1ccoc1)N1C[C@@H]2OCCN(c3ncccn3)[C@@H]2C1` it is 1.23%; for `COCC(=O)NC[C@H]1CC[C@H](c2nnc(-c3cccnc3)o2)CC1` it is -7.6%. Regarding `COCC1CN(S(=O)(=O)c2cccs2)Cc2ncnn2C1` (centres undefined), the cytotoxicity at 70.5 h was -12.8%. The figure for `CN(Cc1cc(F)ccc1F)CC(C)(CO)CO` is -5.92%.

On to `OC(COc1ccccc1)CN1CCc2c(ncn2C2CC2)C1` (centres undefined), for which the cytotoxicity at 70.5 h was -6.53%. For the compound `O=C(NCCNC(=O)c1scnc1Cl)c1ccoc1`, the cytotoxicity at 70.5 h was 5.67%. Next, `COCCN(Cc1ccccn1)C(=O)Nc1cccnc1N1CCCC1`: -12.3%. For the compound `COCCn1cc(CCC(=O)Nc2c(C)nn(C)c2C)c2ccccc21`, the cytotoxicity at 70.5 h is 49.6%. As to `O=C(NCCCNC(=O)c1cccc(O)c1)Nc1ccc(F)cc1F`, the cytotoxicity at 70.5 h is -2.92%.

On to `Cc1noc(CCCNS(=O)(=O)N2CCCC2c2ccco2)n1` (centres undefined), for which the cytotoxicity at 70.5 h is -9.07%. For `c1cc(COc2ccc(CNC3CCc4ncnn4C3)cc2)ccn1` (centres undefined), the cytotoxicity at 70.5 h is -2.99%. Next, `Cn1cc(C2CC3(CCN(C(=O)c4cccs4)CC3)NC2=O)cn1` (centres undefined): 1.02%; `COCc1c(C(=O)N2CCCC(N(C)Cc3ccccc3)C2)noc1C` (centres undefined): -3.62%. The figure for `Cc1oc(C(=O)O)cc1S(=O)(=O)Nc1ccc(Br)cc1Cl` is -16.9%.

As for `O=C(Nc1nnc(C2CC2)s1)NC1CCN(Cc2ccccc2)C1` (centres undefined), the cytotoxicity at 70.5 h is -28%. The figure for `CS(=O)(=O)c1ccc(CNC(=O)N2CCC(C(N)=O)CC2)cc1` is -2.35%; for `Cc1nn(C)c(N2CCOCC2)c1CNC(C)c1ccco1` (centres undefined) it is 10.7%. Regarding `Cc1cccc(-n2nc(CC(C)C)nc2CS(C)(=O)=O)c1`, the cytotoxicity at 70.5 h was -2.84%. As for `O=C(O)c1cn(CC2CCCN(c3nc4ccccc4s3)C2)nn1` (centres undefined), the cytotoxicity at 70.5 h worked out at 20.3%.

Take `Cc1cccc(N(CCC#N)S(=O)(=O)CC2CCCCO2)c1` (centres undefined): the cytotoxicity at 70.5 h came out at 34.5%. For the compound `O=C(COCc1ccco1)Nc1cc(C(F)(F)F)c[nH]c1=O`, the cytotoxicity at 70.5 h amounted to 31.5%. In the case of `COc1cccc(C(=O)Nc2n[nH]c(C3CCCO3)n2)c1` (centres undefined), the cytotoxicity at 70.5 h came out at 22.1%. For the compound `Cc1cnn(CCNCc2csc(-c3ncccn3)n2)c1`, the cytotoxicity at 70.5 h came out at 18.5%.

For `CCCc1nncn1-c1cc(OC)ccc1OC`, the cytotoxicity at 70.5 h was -1.39%. Next, `COc1cc(N2CCC3(CCN(C(=O)c4cccnc4)CC3)C2)ncn1`: -6.37%. The figure for `COc1ccc2c(c1)C(C(=O)NCCCN1CCN(C)CC1)CC(=O)N2` (centres undefined) is -25%.

Turning to `Cc1cnc2n(c1=O)CC(C(=O)Nc1cccc3cccnc13)CS2` (centres undefined), the cytotoxicity at 70.5 h is -5.53%.

For `CSc1ncccc1C(=O)N1C[C@H]2CC[C@@H]1CN(C(C)=O)C2`, the cytotoxicity at 70.5 h is -6.7%. The figure for `CC(c1nccs1)n1cc(-c2cc(CN3CCCCC3)cs2)nn1` (centres undefined) is -4.83%; for `Cc1cc(C)n(CC(C)CNC(=O)N(C)Cc2ccco2)n1` (centres undefined) it is -10.5%. Regarding `Cc1cc(C)n(CC2CCN(CC(O)COc3ccccc3)CC2)n1` (centres undefined), the cytotoxicity at 70.5 h was -6.54%. As for `Cc1cc(C)n(CC(C)CNC(=O)N(C)Cc2cc(C)on2)n1` (centres undefined), the cytotoxicity at 70.5 h was -8.81%. The figure for `CCOC(=O)c1sc(NC(=O)c2cc(=O)c(OC)c[nH]2)nc1C` is -8.8%; for `COC(=O)C1CCN(c2cncc(-n3nc(C)cc3C)n2)CC1` it is 2.18%. The figure for `COc1cc2c(c(OC)c1OC)CCN(CCn1nc(C)cc1C)CC2` is -6.93%; for `CCc1nc(CN(C)CC2CCN(CCO)CC2)no1` it is -9.2%.

`OCCOc1ccc(NCc2cccc3[nH]ccc23)cn1`: the cytotoxicity at 70.5 h was -3.37%. As to `O=C1NCCN1C1CCCN(Cc2coc(-c3cccs3)n2)C1` (centres undefined), the cytotoxicity at 70.5 h is -6.11%. With `Cc1c[nH]nc1C1CCCN1Cc1ncc[nH]1` (centres undefined), the cytotoxicity at 70.5 h was -2.22%.

As to `CCCc1nc(CN2CCCC2Cn2cccn2)cs1` (centres undefined), the cytotoxicity at 70.5 h is -11.6%. For the compound `O=C(c1cccc(Cl)c1)C1CCCN(c2nnc(C3CCC3)o2)C1` (centres undefined), the cytotoxicity at 70.5 h worked out at 5.93%.
